Data: US20100015128A1, “GRP78 as a Predictor of Responsiveness to Therapeutic Agents” (UNIVERSITY OF SOUTHERN CALIFORNIA, priority 2006, published 2010)
d = 2'-deoxy (DNA); r = 2'-OH (RNA)

What was measured:
[1] = tested on: BIK; experiment: siRNA knockdown in MCF-7/BUS cells, Western blot for BIK; format: cell-based, human; settings: estrogen starvation, vs control siRNA
From the text: (§1) Western blots and quantitation. The Western blots were done as described (Lee, Methods 35:373-81 (2005)). The primary antibodies were goat anti-BIK (N-19, Santa Cruz Biotechnology, Santa Cruz, Calif.), rat anti-Grp78 (76-E6, Santa Cruz Biotechnology), rat anti-GRP94, rabbit anti-calnexin, rabbit anti-calreticulin (Stressgen, Ann Arbor, Mich.), mouse anti-Flag M2, mouse anti-poly(ADP-ribose) polymerase (PARP; F-2, Santa Cruz Biotechnology, Santa Cruz, Calif.), and mouse anti-h-actin (Sigma-Aldrich, St. Louis, Mo.). Anti-h-actin was diluted at 1:2,000; anti-BIK at 1:500; and other antibodies at 1:1,000. Respective horseradish peroxidase-conjugated secondary antibodies (Santa Cruz Biotechnology, Santa Cruz, Calif.) at 1:1,000 dilution were used. The Western blots were quantitated by Fluor-S® MultiImager (Bio-Rad, Hercules, Calif.) according to the manufacturer's instructions. All quantitations were normalized against h-actin.
(§2) Small interfering RNA. The siRNA against Grp78 is 5′-gagcgcauugauacuagadTdT-3′ (SEQ ID NO:1) as described (Tsutsumi et al., Oncogene 25:1018-29 (2006)). The siRNA against Bik is 5′-[…]-3′ (SEQ ID NO:2) (Hur et al., PNAS 101:2351-6 (2004)). The control siRNA is Silencer Negative Control #3 siRNA (Ambion, Foster City, Calif.) composed of a 19-bp scrambled sequence without significant homology to any known gene sequences from mouse, rat, or human. […]

[2] = tested on: PARP; experiment: PARP cleavage by Western blot in estrogen-starved cells; format: cell-based, human; settings: MCF-7/BUS cells, estrogen starvation; for PARP cleavage: vs control siRNA
Method: In FIG. 8A, cell lysates from MCF-7/BUS cells transfected with siGrp78 oligomers or control siRNA (siCtrl) for 24 hours and subsequently cultured in regular or estrogen-free medium (ES) for 24 hours were subjected to SDS-PAGE and Western blotting to probe for levels of GRP78, GRP94 and β-actin. In FIG. 8B, MCF-7/BUS cells were cultured either in regular or in estrogen-free (ES) medium for 24 hours after transfection of siGrp78 or siCtrl as indicated. The percent of apoptotic cells was assessed by mitochondrial membrane potential staining. The standard errors are indicated. In FIG. 8C, MCF-7/BUS cells were transfected with control siRNA, siGrp78, or siBik, alone or in combination as indicated for 24 hours and then cultured in ES medium for 24 hours. The total amount of siRNA in each condition was adjusted to be the same by addition of siCtrl. Cell lysates were collected and subjected to SDS-PAGE and probed for levels of GRP78, BIK and β-actin by Western blotting. In FIG. 8D, cell lysates from FIG. 8C were subjected to SDS-PAGE and Western blotted with anti-PARP antibody. The Western signal of full-length PARP and apoptosis-signature fragment were quantitated by Fluor-S™ MultiImager (Bio-Rad, Hercules, Calif.). The relative PARP cleavages are shown with the PARP cleavage in cells transfected with control siRNA set as 1. Columns in FIGS. 8B and 8D represent the mean from three or two experiments, respectively. Standard error: * p<0.05, ** p<0.01.
Cell lines and culture conditions. The estrogen-dependent cell line MCF-7/BUS was provided by A. M. Soto (Tufts University, Medford, Mass.) and has been described (Soto et al., Environ. Health Perspect. 103:113-22 (1995)). The human embryonic kidney 293T cells and MCF-7/BUS cells were maintained in DMEM supplemented with 10% fetal bovine serum. […]
Western blots and quantitation. […] The Western blots were quantitated by Fluor-S® MultiImager (Bio-Rad, Hercules, Calif.) according to the manufacturer's instructions. All quantitations were normalized against h-actin.

[3] = tested on: GRP78; experiment: siRNA knockdown in MCF-7/BUS cells, Western blot for Grp78; format: cell-based, human; settings: transient transfection, vs control siRNA
From the text: as §1, §2

[4] = tested on: GRP94; experiment: siRNA knockdown in MCF-7/BUS cells, Western blot for GRP94; format: cell-based, human; settings: transient transfection
From the text: as §1, §2

[5] = tested on: MCF-7/BUS cells; experiment: Mitochondrial membrane potential staining (apoptosis); format: cell-based, human
From the text: (§3) Cell lines and culture conditions. The estrogen-dependent cell line MCF-7/BUS was provided by A. M. Soto (Tufts University, Medford, Mass.) and has been described (Soto et al., Environ. Health Perspect. 103:113-22 (1995)). The human embryonic kidney 293T cells and MCF-7/BUS cells were maintained in DMEM supplemented with 10% fetal bovine serum. Estrogen starvation of MCF-7/BUS cells was done as described (Hur et al., PNAS 101:2351-6 (2004)). Briefly, the cells were washed thrice with phenol red-free DMEM and incubated in washing medium at 37° C. for 60 minutes. The MCF-7/BUS cells were then cultured in phenol red-free DMEM supplemented with 5% charcoal/dextran-stripped fetal bovine serum for 24 to 72 hours as indicated. For etoposide treatment, the cells were incubated with 50 μmol/L etoposide for 6 hours and cultured for another 24 hours before harvest.
For construction of the adenovirus expression vectors, either GFP or a His-tagged full-length hamster Grp78 cDNA was subcloned into an adenoviral vector and its expression was driven by the cytomegalovirus promoter. […] For mitochondrial membrane potential staining, because GFP interferes with the green fluorescence of this assay, the adenovirus empty vector was used as the negative control. […]
Cell death and apoptotic assays. […] The cell cultures were then washed with PBS and examined under a fluorescence microscope. […]

[6] = tested on: BIK; experiment: BIK protein induction under stress conditions (Western blot); format: cell-based, human
From the text: as §3, §1

[7] = target: Flag-tagged BIK-b5TM (UniProt Q13323); experiment: cell-based or functional assay
[8] = target: endogenous BIK (human) (UniProt Q13323); experiment: cell-based or functional assay
[9] = target: T1, GST protein (UniProt P08515 1-218 = GST); experiment: GST pull-down from 293T total cell extract, Western blot
T1 construct: Negative control in the pull-down assays; also called Glutathione S-transferase
T1 sequence (P08515 whole entry): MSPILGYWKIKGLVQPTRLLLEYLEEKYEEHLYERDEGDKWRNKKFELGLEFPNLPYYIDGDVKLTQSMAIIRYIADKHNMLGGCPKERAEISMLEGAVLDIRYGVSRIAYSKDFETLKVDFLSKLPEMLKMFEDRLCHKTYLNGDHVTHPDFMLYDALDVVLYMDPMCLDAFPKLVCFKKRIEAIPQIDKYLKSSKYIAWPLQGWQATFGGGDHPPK
Method: (§4) FIGS. 5A to 5D show selective association of endogenous BIK with GRP78. In FIG. 5A, 293T cells were either non-treated or treated with 50 μM etoposide (Etop) for 6 hours and were harvested 24 hours later. MCF-7/BUS cells were cultured either in regular DMEM or in estrogen-free DMEM for 48 hours. Western blots of total protein lysates from these cells were performed with antibodies against BIK and β-actin. In FIG. 5B, cell lysates prepared from control and Etop-treated 293T cells were immunoprecipitated with anti-BIK or normal IgG The immunoprecipitates were applied in parallel with input lysates to SDS-PAGE and Western blotted with antibodies against GRP78, GRP94, calnexin, calreticulin and BIK. […] In FIG. 5D, lysates of 293T cells were incubated with GST-GRP78, GST-BIK, or GST linked beads. The bound proteins were resolved by SDS-PAGE and probed for GRP78 or BIK by Western blotting.
Glutathione S-transferase pull-down assays. Glutathione S-transferase (GST)-Grp78 and GST-BIK were constructed by subcloning full-length hamster Grp78 cDNA and human BIK into the BamH1/XhoI and BamH1/Sal1 sites of pGEX 4T1, respectively (Pharmacia Biotech, Piscataway, N.J.). Conditions for the GST pull-down assays have been described (Wu and Lee, Nucleic Acids Res. 26:4837-45 (1998)) with the following modifications. […]

[10] = target: GRP94 (human, UniProt P14625 22-803); experiment: co-immunoprecipitation with anti-BIK from 293T lysate, Western blot
GRP94 (human, UniProt P14625 22-803), sequence (P14625 22-803 limits assumed): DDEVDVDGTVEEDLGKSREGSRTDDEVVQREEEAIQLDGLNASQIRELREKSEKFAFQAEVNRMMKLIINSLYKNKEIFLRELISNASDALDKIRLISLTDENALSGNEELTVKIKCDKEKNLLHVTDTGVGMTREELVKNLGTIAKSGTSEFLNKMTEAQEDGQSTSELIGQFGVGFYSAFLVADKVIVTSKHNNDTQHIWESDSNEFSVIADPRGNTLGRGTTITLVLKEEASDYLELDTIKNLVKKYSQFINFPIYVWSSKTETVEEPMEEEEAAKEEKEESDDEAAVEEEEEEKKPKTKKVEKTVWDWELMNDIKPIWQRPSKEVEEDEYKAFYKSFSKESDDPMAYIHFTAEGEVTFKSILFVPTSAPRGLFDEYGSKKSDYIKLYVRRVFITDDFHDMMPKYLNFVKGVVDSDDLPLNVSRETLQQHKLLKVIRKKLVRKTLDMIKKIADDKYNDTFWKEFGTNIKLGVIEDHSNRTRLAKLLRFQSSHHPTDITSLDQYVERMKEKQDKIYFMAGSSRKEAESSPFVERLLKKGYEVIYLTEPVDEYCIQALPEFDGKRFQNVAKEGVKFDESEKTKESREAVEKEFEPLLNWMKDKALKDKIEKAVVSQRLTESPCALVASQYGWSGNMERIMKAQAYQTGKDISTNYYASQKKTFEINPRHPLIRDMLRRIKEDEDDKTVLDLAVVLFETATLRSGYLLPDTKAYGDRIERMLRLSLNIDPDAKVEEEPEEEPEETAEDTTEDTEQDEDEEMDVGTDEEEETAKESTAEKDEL
Method: as §4
(§5) Communoprecipitation assays. The coimmunoprecipitation assays were done as described (Reddy et al., J. Biol. Chem. 278:20915-24 (2003)). Briefly, 500 μg of total protein extract from each sample were pretreated with protein G-Sepharose beads (Upstate, Chicago, Ill.), followed by incubation with 5 Ag of goat anti-BIK antibody (N-19, Santa Cruz Biotechnology, Santa Cruz, Calif.) or mouse anti-Flag M2 antibody (Sigma-Aldrich, St. Louis, Mo.). For negative controls, the respective goat or mouse immunoglobulin G (IgG; Santa Cruz Biotechnology, Santa Cruz, Calif.) was used.

[11] = target: T2, calnexin (human, UniProt P27824 21-592); experiment: as above
T2 sequence (looked up): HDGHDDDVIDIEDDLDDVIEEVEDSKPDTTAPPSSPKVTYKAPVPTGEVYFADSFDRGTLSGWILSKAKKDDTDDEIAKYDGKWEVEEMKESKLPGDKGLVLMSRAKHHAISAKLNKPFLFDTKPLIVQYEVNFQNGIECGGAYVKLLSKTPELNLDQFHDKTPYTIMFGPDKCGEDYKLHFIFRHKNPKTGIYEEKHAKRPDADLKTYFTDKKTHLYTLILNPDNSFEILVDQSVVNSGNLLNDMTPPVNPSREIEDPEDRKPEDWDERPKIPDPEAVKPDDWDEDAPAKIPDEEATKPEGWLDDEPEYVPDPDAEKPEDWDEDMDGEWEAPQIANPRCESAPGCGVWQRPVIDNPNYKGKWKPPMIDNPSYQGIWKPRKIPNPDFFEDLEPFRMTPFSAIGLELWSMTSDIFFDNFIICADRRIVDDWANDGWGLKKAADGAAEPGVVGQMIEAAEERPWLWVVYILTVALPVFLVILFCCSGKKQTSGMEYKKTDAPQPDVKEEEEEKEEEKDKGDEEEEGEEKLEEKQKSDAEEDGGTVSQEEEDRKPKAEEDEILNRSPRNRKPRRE
Method: as §4, §5

[12] = target: T3, calreticulin (human, UniProt P27797 18-417); experiment: as above
T3 sequence (looked up): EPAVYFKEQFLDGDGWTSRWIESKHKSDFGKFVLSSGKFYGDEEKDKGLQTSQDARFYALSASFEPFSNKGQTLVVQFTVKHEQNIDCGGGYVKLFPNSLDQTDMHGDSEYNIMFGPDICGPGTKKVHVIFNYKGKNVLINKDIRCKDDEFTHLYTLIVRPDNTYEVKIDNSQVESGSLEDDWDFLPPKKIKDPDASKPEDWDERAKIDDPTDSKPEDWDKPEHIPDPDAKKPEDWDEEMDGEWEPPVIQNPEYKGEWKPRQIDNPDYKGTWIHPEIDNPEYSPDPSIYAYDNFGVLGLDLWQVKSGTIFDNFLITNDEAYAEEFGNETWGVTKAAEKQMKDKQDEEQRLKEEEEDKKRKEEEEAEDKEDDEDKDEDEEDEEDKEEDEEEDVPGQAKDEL
Method: as §4, §5

siRNA against Bik: siRNA 5′-aagaccccucuccagagacau-3′ (SEQ ID NO:2) (AAGACCCCUCUCCAGAGACAU; RNA, backbone not given here)
expression of BIK protein [1]: substantially reduced
enhanced PARP cleavage mediated by knockdown of Grp78 ([2]; BIK knockdown combined with Grp78 knockdown): substantially reduced
PARP cleavage [2]: decreased

siRNA against Grp78: siRNA 5′-gagcgcauugauacuagadTdT-3′ (SEQ ID NO:1) (guide GAGCGCAUUGAUACUAGATT; sugars from the 5' end r18 d2, backbone not given here)
level of Grp78 protein [3]: substantially reduced
expression of GRP94 [4]: no effect
effect on mitochondrial membrane potential ([5]; MCF-7/BUS cells in normal culture medium): little effect
apoptosis ([5]; MCF-7/BUS cells, estrogen starvation 24 hours, vs control siRNA): marked increase
PARP cleavage [2]: increased

COc1cc([C@@H]2c3cc4c(cc3[C@@H](O[C@@H]3O[C@@H]5CO[C@@H](C)O[C@H]5[C@H](O)[C@H]3O)[C@H]3COC(=O)[C@H]23)OCO4)cc(OC)c1O [etoposide]
level of BIK protein ([6]; 293T cells, 50 μmol/L etoposide 6 hours, harvested 24 hours later): substantially elevated

tunicamycin
induction of BIK by ER stress inducers ([6]; human cells): do not induce

His-tagged Grp78
fold decrease in apoptosis (mitochondrial membrane potential staining) in transfected 293T cells [7]: 3 fold

His-tagged full-length hamster Grp78 (Ad-Grp78) (from UniProt P07823 19-654)
decrease in BAX activation by estrogen starvation (FACS with BAX conformation specific antibody) in MCF-7/BUS cells [8]: 48%

B1: endogenous BIK (other, human, UniProt Q13323 1-160, looked up)
chain: MSEVRPLSRDILMETLLYEQLLEPPTMEVLGMTDSEEDLDPMEDFDSLECMEGSDALALRLACIGDEMDVSLRAPRLAQLSEVAMHSLGLAFIYDQTEDIRDVLRSFMDGFTTLKENIMRFWRSPNPGSWVSCEQVLLALLLLLALLLPLLSGGLHLLLK
notes: Endogenous protein from total cell extract of the human cell line 293T, untreated or etoposide-treated; also called BIK protein
binding result [9]: no binding
binding result [10]: no binding
binding result [11]: no binding
binding result [12]: no binding
